# Test results taken from US6680323B2, “Dihydropyrimidines and uses thereof” (Synaptic Pharmaceutical Corporation, priority 1998, dated 2004).
# Where a name gives a salt, the structure may show the parent alone.
# Legend:
# human α2a receptor = molecular target: T1, human α2a receptor (Homo sapiens, UniProt P08913); assay: Competition binding ([3H]rauwolscine) at cloned human α2a receptor; conditions: transfected LM(tk−) cells, [3H]rauwolscine 0.5 nM; read-out: Binding affinity hα2a
# T1 construct: expressed in transfected cells
# T1 sequence (P08913 1-465): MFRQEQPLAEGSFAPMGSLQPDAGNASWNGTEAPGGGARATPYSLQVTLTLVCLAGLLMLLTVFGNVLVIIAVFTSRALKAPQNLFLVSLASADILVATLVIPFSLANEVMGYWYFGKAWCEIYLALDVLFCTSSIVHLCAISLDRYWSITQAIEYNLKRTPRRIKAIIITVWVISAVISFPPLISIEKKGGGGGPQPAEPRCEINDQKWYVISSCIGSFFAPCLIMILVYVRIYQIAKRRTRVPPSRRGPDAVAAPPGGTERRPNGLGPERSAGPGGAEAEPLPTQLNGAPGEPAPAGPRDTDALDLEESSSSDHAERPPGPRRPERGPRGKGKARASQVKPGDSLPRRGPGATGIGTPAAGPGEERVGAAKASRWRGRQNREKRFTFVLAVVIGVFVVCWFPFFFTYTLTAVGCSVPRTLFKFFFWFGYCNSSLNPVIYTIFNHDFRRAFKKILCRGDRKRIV
# Text: (§1) α2 Human Adrenergic Receptors
# (§2) To determine the potency of α1 antagonists at the α2 receptors, LM(tk−) cell lines stably transfected with the genes encoding the α2a, α2b, and α2c receptors were used. The cell line expressing the α2a receptor is designated L-α2A, and was deposited on Nov. 6, 1992 under ATCC Accession No. CRL 11180. The cell line expressing the α2b receptor is designated L-NGC-α2B, and was deposited on Oct. 25, 1989 under ATCC Accession No. CRL10275. The cell line expressing the α2c receptor is designated L-α2C, and was deposited on Nov. 6, 1992 under ATCC Accession No. CRL-11181. All the cell lines were deposited with the American Type Culture Collection, 12301 Parklawn Drive, Rockville, Md. 20852, U.S.A. under the provisions of the Budapest Treaty for the International Recognition of the Deposit of Microorganisms for the Purposes of Patent Procedure. Cell lysates were prepared as described above (see Radioligand Binding Assays), and suspended in 25 mM glycylglycine buffer (pH 7.6 at room temperature). Equilibrium competition binding assay were performed using [3H]rauwolscine (0.5 nM), and nonspecific binding was determined by incubation with 10 μM phentolamine. The bound radioligand was separated by filtration through GF/B filters using a cell harvester.
# human α2b receptor = molecular target: T2, human α2b receptor (Homo sapiens, UniProt P18089); assay: Competition binding ([3H]rauwolscine) at cloned human α2b receptor; conditions: transfected LM(tk−) cells, [3H]rauwolscine 0.5 nM; read-out: Binding affinity hα2b
# T2 construct: expressed in transfected cells
# T2 sequence (P18089 1-450): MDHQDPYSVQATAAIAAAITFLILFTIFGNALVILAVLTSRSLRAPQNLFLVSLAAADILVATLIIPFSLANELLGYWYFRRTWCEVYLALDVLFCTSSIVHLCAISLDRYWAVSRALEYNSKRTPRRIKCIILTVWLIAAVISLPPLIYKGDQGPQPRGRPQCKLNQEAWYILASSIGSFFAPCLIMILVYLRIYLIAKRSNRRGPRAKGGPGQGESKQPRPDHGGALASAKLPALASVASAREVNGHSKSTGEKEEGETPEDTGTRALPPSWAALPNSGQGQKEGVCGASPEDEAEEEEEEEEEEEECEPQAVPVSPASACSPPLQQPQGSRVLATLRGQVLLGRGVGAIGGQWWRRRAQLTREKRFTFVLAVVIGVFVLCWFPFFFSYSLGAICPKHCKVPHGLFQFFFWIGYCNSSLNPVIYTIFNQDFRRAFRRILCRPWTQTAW
# Text: as §1, §2
# human α2c receptor = molecular target: T3, human α2c receptor (Homo sapiens, UniProt P18825); assay: Competition binding ([3H]rauwolscine) at cloned human α2c receptor; conditions: transfected LM(tk−) cells, [3H]rauwolscine 0.5 nM; read-out: Binding affinity hα2c
# T3 construct: expressed in transfected cells
# T3 sequence (P18825 1-462): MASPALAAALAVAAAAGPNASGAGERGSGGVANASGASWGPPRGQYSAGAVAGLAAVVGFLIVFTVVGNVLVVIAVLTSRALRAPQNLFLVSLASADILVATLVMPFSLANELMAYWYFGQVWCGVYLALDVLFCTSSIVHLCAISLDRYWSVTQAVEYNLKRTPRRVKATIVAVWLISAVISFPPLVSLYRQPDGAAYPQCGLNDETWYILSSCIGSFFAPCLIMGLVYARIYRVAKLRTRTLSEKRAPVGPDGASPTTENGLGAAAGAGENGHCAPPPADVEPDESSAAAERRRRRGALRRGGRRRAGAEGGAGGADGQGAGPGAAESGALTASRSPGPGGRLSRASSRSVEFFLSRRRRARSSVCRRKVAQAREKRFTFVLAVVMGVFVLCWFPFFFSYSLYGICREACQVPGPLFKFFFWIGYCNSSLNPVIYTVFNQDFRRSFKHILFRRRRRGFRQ
# Text: as §1, §2
# human α1b receptor = molecular target: T4, human α1b receptor (Homo sapiens, UniProt P35368); assay: Radioligand binding ([3H]prazosin) at cloned human α1b receptor; conditions: membranes of transfected LM(tk−) cells, [3H]prazosin 0.5 nM; read-out: Binding affinity hα1b
# T4 construct: The entire coding region of α1b (1563 bp); expressed in transfected cells
# T4 sequence (P35368 1-520): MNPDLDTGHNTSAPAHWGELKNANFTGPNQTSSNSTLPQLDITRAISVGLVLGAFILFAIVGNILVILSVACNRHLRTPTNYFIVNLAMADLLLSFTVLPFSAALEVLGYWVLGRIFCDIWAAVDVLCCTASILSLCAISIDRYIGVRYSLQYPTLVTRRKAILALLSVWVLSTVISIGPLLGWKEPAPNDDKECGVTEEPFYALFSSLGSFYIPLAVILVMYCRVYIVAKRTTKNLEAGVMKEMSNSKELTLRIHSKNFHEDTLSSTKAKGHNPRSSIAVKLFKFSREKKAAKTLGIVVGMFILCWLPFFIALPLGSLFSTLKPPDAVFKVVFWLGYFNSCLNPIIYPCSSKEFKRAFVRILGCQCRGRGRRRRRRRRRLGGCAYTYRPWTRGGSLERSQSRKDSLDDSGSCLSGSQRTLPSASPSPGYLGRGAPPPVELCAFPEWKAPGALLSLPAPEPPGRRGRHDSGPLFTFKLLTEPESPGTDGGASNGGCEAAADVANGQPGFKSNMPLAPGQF
# Method: The activity of compounds at the different human receptors was determined in vitro using cultured cell lines that selectively express the receptor of interest. These cell lines were prepared by transfecting the cloned cDNA or cloned genomic DNA or constructs containing both genomic DNA and cDNA encoding the human α-adrenergic receptors as follows:
# α1b Human Adrenergic Receptor
# The entire coding region of α1b (1563 bp), including 200 base pairs and 5′ untranslated sequence (5′ UT) and 600 bp of 3′ untranslated sequence (3′ UT), was cloned into the EcoRI site of pCEXV-3 eukaryotic expression vector.
# The construct involved ligating the full-length containing EcoRI brainstem cDNA fragment from λ ZapII into the expression vector. Stable cell lines were selected as described above. The cell line used herein was designated L-α1B and was deposited with the American Type Culture Collection, 12301 Parklawn Drive, Rockville, Md. 20852, U.S.A. under the provisions of the Budapest Treaty for the International Recognition of the Deposit of Microorganisms for the Purposes of Patent Procedure. The cell line L-α1B was accorded ATCC Accession No. CR 11139, on Sep. 29, 1992.
# Radioligand Binding Assays for α1 Receptors
# Transfected cells from culture flasks were scraped into 5 ml of 5 mM Tris-HCl, 5 mM EDTA, pH 7.5, and lysed by sonication. The cell lysates were centrifuged at 1000 rpm for 5 min at 4° C., and the supernatant was centrifuged at 30,000×g for 20 min at 4° C. The pellet was suspended in 50 mM Tris-HCl, 1 mM MgCl2, and 0.1% ascorbic acid at pH 7.5. Binding of the α1 antagonist [^3H]prazosin (0.5 nM, specific activity 76.2 Ci/mmol) to membrane preparations of LM(tk−) cells was done in a final volume of 0.25 ml and incubated at 37° C. for 20 min. Nonspecific binding was determined in the presence of 10 μM phentolamine. The reaction was stopped by filtration through GF/B filters using a cell harvester. Inhibition experiments, routinely consisting of 7 concentrations of the tested compounds, were analyzed using a non-linear regression curve-fitting computer program to obtain Ki values.
melting point,SMILES,Ki (human α2a receptor),Ki (human α2b receptor),Ki (human α2c receptor),Ki (human α1b receptor)
60 to 85 °C,"COCC1=C(C(=O)OC)[C@H](c2ccc(F)c(F)c2)N(C(=O)NCCC[n+]2ccc(-c3ccccn3)cc2)C(=O)N1 (as salt: chloride) [Compound 3, 4-(2-Pyridyl)-1-{3-[5-carboxymethyl-4-methoxymethyl-2-oxo-6(S)-(3,4-difluorphenyl)-1,2,3,6-tetrahydropyrimidin-1-yl]carboxyaminopropyl}pyridinium chloride]",–,–,–,–
90 to 95 °C,"O=C1OCC2=C1C(c1ccc(F)c(F)c1)N(C(=O)NCCCN1CCC(c3ccccn3)CC1)C(=O)N2 (single isomer, unassigned; (+)) (as salt: hydrochloride) [Compound 8, (+)-1-3-{[4-(3,4-Difluorophenyl)-2,5-dioxo-1,2,5,7-tetrahydro-4H-furo[3,4-d]-pyrimidine-3-carbonyl]amino}-propyl-4-(2-pyridyl)-piperidine]",–,–,–,–
–,"COCC1=C(CC(=O)O)C(c2ccc(F)c(F)c2)N(C(=O)NCCC[N+]2([O-])CCC(c3ccccn3)CC2)C(=O)N1 (single isomer, unassigned; (+)) [Compound 4, (+)-4-(2-Pyridyl)-1-{3-[5-carboxymethyl-4-methoxymethyl-2-oxo-6-(3,4-difluorphenyl)-1,2,3,6-tetrahydropyrimidin-1-ylcarbonylamino]propyl}piperidine-1-oxide]",22 µM,17 µM,8 µM,1.35 µM
–,"COC(=O)C1=C(c2ccc(F)c(F)c2)N(C(=O)NCCCN2CCC(c3ccccn3)CC2)C(=O)NC1C(=O)O (single isomer, unassigned; (+)) [Compound 6, (+)-2-Oxo-3-{N-[4-(2-pyridyl)piperidin-1-yl]propyl}carboxamido-4-(3,4-difluorophenyl)-5-methoxycarbonyl-6-carboxy-1,2,3,6-tetrahydropyrimidine]",> 50 µM,37.6 µM,> 50 µM,> 2 µM
